From patent US9427400B2, “Platinum-catalyzed intravaginal rings” (International Partnership for Microbicides, priority 2013, dated 2016)
In brackets after ≈: the same amount, converted by molar mass. Read-outs that look alike come from different tables or passages of the source.

How the values were obtained:
[1] = Solubility profile of dapivirine; format: physicochemical; details: for solubility: read-out: Solubility Profile (Low Solubility)
Protocol: As used herein, the term “dapivirine” refers to (4-[[4-[(2,4,6-trimethylphenyl)amino]-2-pyrimidinyl]amino]benzonitrile), a non-nucleoside reverse transcriptase inhibitor. Dapivirine is useful in the prevention and/or treatment of retroviral infection, such as HIV-1 infection. It is a crystalline compound that is white to slightly beige in color, has a melting point of about 220° C. and is virtually insoluble in water. More specifically, the solubility of dapivirine is less than 0.001 mg/gm of water (i.e., less than 1 μg/ml of water). The intravaginal rings of the instant invention may use micronized dapivirine.

[2] = system: wild-type HIV-1 strains and HIV-1 strains harboring different resistance-inducing mutations; details: wild-type and resistance-mutant strains; cited from earlier work
[3] = Log P (n-octanol and buffer); format: physicochemical; details: at pH 9.0

Cc1cc(C)c(Nc2ccnc(Nc3ccc(C#N)cc3)n2)c(C)c1 [dapivirine, 4-[[4-[(2,4,6-trimethylphenyl)amino]-2-pyrimidinyl]amino]benzonitrile]
solubility ([1]; 0.1N HCl, simulated gastric fluid): 280 µg/mL (≈ 850 µM) | Solubility Profile (Low Solubility) ([1]; PEG 400): PEG 400 = 47.4 mg/g | Solubility Profile (Low Solubility) ([1]; Propylene Glycol): Propylene Glycol = 2.69 mg/g | solubility ([1]; water): > 1 µg/mL | activity against HIV-1 strains [2]: potent activity | logP [3]: 5.27
